From ChEMBL document CHEMBL1156612, “The chemical and hydroxyl radical scavenging activity changes of ginsenoside-Rb1 by heat processing” (Bioorg Med Chem Lett, 2008)

Legend:
Type in all cases: functional
Design in all cases: scale not given: the % may be the effect or the level left
[1] = Antioxidant activity assessed as inhibition of hydroxyl radical production at 0.5% concentration%
[2] = Antioxidant activity assessed as inhibition of hydroxyl radical production after heat processing
[3] = Antioxidant activity assessed as inhibition of hydroxyl radical production at 0.05% concentration%

CC(C)=CCC[C@](C)(O[C@@H]1O[C@H](CO[C@@H]2O[C@H](CO)[C@@H](O)[C@H](O)[C@H]2O)[C@@H](O)[C@H](O)[C@H]1O)[C@H]1CC[C@]2(C)[C@@H]1[C@H](O)C[C@@H]1[C@@]3(C)CC[C@H](O[C@@H]4O[C@H](CO)[C@@H](O)[C@H](O)[C@H]4O[C@@H]4O[C@H](CO)[C@@H](O)[C@H](O)[C@H]4O)C(C)(C)[C@@H]3CC[C@]12C
Activity [1]: 24% | Activity [2]: 42% | Activity [3]: 47%
